Assay results from patent publication US8999889B2, “Substituted ketonic isoxazoline compounds and derivatives for combating animal pests” (BASF SE, priority 2010, dated 2015).

Key:
Assay type in all cases: in vivo
Megoura viciae = experiment: Vetch aphid (Megoura viciae), broad bean leaf disks in microtiter plates; settings: foliar, 120 h, Megoura viciae adults, 5 days, read-out: mortality in comparison with untreated controls
Description: B.5 Vetch aphid (Megoura viciae)
For evaluating control of vetch aphid (Megoura viciae) through contact or systemic means the test unit consisted of 24-well-microtiter plates containing broad bean leaf disks.
The compounds were formulated using a solution containing 75% v/v water and 25% v/v DMSO. Different concentrations of formulated compounds were sprayed onto the leaf disks at 2.5 μl, using a custom built micro atomizer, at two replications. After application, the leaf disks were air-dried and 5-8 adult aphids placed on the leaf disks inside the microtiter plate wells. The aphids were then allowed to suck on the treated leaf disks and incubated at about 23±1° C. and about 50±5% relative humidity for 5 days. Aphid mortality and fecundity was then visually assessed.

Spodoptera eridania = experiment: Southern armyworm (Spodoptera eridania), sprayed lima bean plants; settings: 96 h, Spodoptera eridania larvae, 4 days after treatment, read-out: mortality in comparison with untreated controls
Description: B.4 Southern Armyworm (Spodoptera eridania)
(§1) The active compounds were formulated in cyclohexanone as a 10,000 ppm solution supplied in tubes. The tubes were inserted into an automated electrostatic sprayer equipped with an atomizing nozzle and they served as stock solutions for which lower dilutions were made in 50% acetone:50% water (v/v). A nonionic surfactant (Kinetic®) was included in the solution at a volume of 0.01% (v/v).
(§2) Lima bean plants (variety Sieva) were grown 2 plants to a pot and selected for treatment at the 1st true leaf stage. Test solutions were sprayed onto the foliage by an automated electrostatic plant sprayer equipped with an atomizing spray nozzle. The plants were dried in the sprayer fume hood and then removed from the sprayer. Each pot was placed into perforated plastic bags with a zip closure. About 10 to 11 armyworm larvae were placed into the bag and the bags zipped closed. Test plants were maintained in a growth room at about 25° C. and about 20-40% relative humidity for 4 days, avoiding direct exposure to fluorescent light (24 hour photoperiod) to prevent trapping of heat inside the bags. Mortality and reduced feeding were assessed 4 days after treatment, compared to untreated control plants.

Ceratitis capitata = experiment: Mediterranean fruitfly (Ceratitis capitata), microtiter plate with insect diet and eggs; settings: 120 h, egg and larval mortality after 5 days, read-out: mortality in comparison with untreated controls
Description: B.2 Mediterranean Fruitfly (Ceratitis capitata)
For evaluating control of Mediterranean fruitfly (Ceratitis capitata) the test unit consisted of microtiter plates containing an insect diet and 50-80 C. capitata eggs.
The compounds were formulated using a solution containing 75% v/v water and 25% v/v DMSO. Different concentrations of formulated compounds were sprayed onto the insect diet at 5 μl, using a custom built micro atomizer, at two replications. After application, microtiter plates were incubated at about 28±1° C. and about 80±5% relative humidity for 5 days. Egg and larval mortality was then visually assessed.

Heliothis virescens = experiment: Tobacco budworm (Heliothis virescens) I, sprayed cotton plants; settings: 96 h, Heliothis virescens larvae, 4 days after treatment, read-out: mortality in comparison with untreated controls
Description: B.6 Tobacco Budworm (Heliothis virescens) I
as §1
as §2, with “Cotton” for “Lima bean”, “plants” for “plants (variety Sieva)”, “cotyledon” for “1st true leaf”, “budworm” for “armyworm”

Plutella xylostella = experiment: Diamond back moth (Plutella xylostella), dipped Chinese cabbage leaves; settings: mortality recorded 24, 72, and 120 hours after treatment, read-out: mortality in comparison with untreated controls
Description: If not otherwise specified the test solutions were prepared as follow:
The active compound was dissolved at the desired concentration in a mixture of 1:1 (vol:vol) distilled water:acteon. The test solution was prepared at the day of use and in general at concentrations of ppm (wt/vol).
B.1 Diamond Back Moth (Plutella xylostella)
Leaves of Chinese cabbage were dipped in test solution and air-dried. Treated leaves were placed in petri dished lined with moist filter paper. Mortality was recorded 24, 72, and 120 hours after treatment.

Bemisia argentifolii = experiment: Silverleaf whitefly (Bemisia argentifolii), sprayed cotton plants; settings: 72 h, Bemisia argentifolii adults, 3 days after treatment, read-out: mortality in comparison with untreated controls
Excerpt: B.3 Silverleaf Whitefly (Bemisia argentifolii)
as §1
Cotton plants at the cotyledon stage (one plant per pot) were sprayed by an automated electrostatic plant sprayer equipped with an atomizing spray nozzle. The plants were dried in the sprayer fume hood and then removed from the sprayer. Each pot was placed into a plastic cup and about 10 to 12 whitefly adults (approximately 3-5 days old) were introduced. The insects were collected using an aspirator and a nontoxic Tygon® tubing connected to a barrier pipette tip. The tip, containing the collected insects, was then gently inserted into the soil containing the treated plant, allowing insects to crawl out of the tip to reach the foliage for feeding. Cups were covered with a reusable screened lid. […] Mortality was assessed 3 days after treatment, compared to untreated control plants.

Anthonomus grandis = experiment: Boll weevil (Anthonomus grandis), microtiter plate with insect diet and eggs; settings: 120 h, egg and larval mortality after 5 days, read-out: mortality in comparison with untreated controls
Description: B.7 Boll Weevil (Anthonomus grandis)
For evaluating control of boll weevil (Anthonomus grandis) the test unit consisted of 24-well-microtiter plates containing an insect diet and 20-30 A. grandis eggs.
The compounds were formulated using a solution containing 75% v/v water and 25% v/v DMSO. Different concentrations of formulated compounds were sprayed onto the insect diet at 20 μl, using a custom built micro atomizer, at two replications.
After application, microtiter plates were incubated at about 23±1° C. and about 50±5% relative humidity for 5 days. Egg and larval mortality was then visually assessed.

Myzus persicae = experiment: Green peach aphid (Myzus persicae), artificial diet under membrane, systemic; settings: 72 h, Myzus persicae adults, 3 days, read-out: mortality in comparison with untreated controls
Excerpt: B.8 Green Peach Aphid (Myzus Persicae)
For evaluating control of green peach aphid (Myzus persicae) through systemic means the test unit consisted of 96-well-microtiter plates containing liquid artificial diet under an artificial membrane.
The compounds were formulated using a solution containing 75% v/v water and 25% v/v DMSO. Different concentrations of formulated compounds were pipetted into the aphid diet, using a custom built pipetter, at two replications.
After application, 5-8 adult aphids were placed on the artificial membrane inside the microtiter plate wells. The aphids were then allowed to suck on the treated aphid diet and incubated at about 23±1° C. and about 50±5% relative humidity for 3 days. Aphid mortality and fecundity was then visually assessed.

CC(=O)c1ccc(C2=NOC(c3cc(Cl)cc(Cl)c3)(C(F)(F)F)C2)cc1C (stereo not drawn) [Compound 1-1, 1-{4-[5-(3,5-Dichloro-phenyl)-5-trifluoromethyl-4,5-dihydro-isoxazol-3-yl]-2-methyl-phenyl}-ethanone]
≥ 75%: mortality at 2500 ppm (Megoura viciae) | mortality at 300 ppm (Spodoptera eridania) | mortality at 2500 ppm (Ceratitis capitata) | mortality at 2500 ppm (Heliothis virescens) | mortality at 300 ppm (Plutella xylostella) | mortality at 300 ppm (Bemisia argentifolii) | mortality at 2500 ppm (Anthonomus grandis) | mortality at 2500 ppm (Myzus persicae)

Cc1cc(C2=NOC(c3cc(Cl)cc(Cl)c3)(C(F)(F)F)C2)ccc1C(=O)CC(C)C (stereo not drawn) [Compound 1-2, 1-{4-[5-(3,5-Dichloro-phenyl)-5-trifluoromethyl-4,5-dihydro-isoxazol-3-yl]-2-methyl-phenyl}-3-methyl-butan-1-one]
≥ 75%: mortality at 2500 ppm (Megoura viciae) | mortality at 300 ppm (Spodoptera eridania) | mortality at 2500 ppm (Ceratitis capitata) | mortality at 2500 ppm (Heliothis virescens) | mortality at 300 ppm (Plutella xylostella) | mortality at 300 ppm (Bemisia argentifolii) | mortality at 2500 ppm (Myzus persicae)
